For assay [1], the target named is T1, CCKB receptor (Mus musculus, UniProt P56481).
T1 construct: The cortex was dissected, weighed and homogenised in 40ml ice-cold buffer; tissue Charles River (supplier of the CD1 mice); host or cells: cerebral cortex membranes of male CD1 mice
T1 sequence (P56481 1-453): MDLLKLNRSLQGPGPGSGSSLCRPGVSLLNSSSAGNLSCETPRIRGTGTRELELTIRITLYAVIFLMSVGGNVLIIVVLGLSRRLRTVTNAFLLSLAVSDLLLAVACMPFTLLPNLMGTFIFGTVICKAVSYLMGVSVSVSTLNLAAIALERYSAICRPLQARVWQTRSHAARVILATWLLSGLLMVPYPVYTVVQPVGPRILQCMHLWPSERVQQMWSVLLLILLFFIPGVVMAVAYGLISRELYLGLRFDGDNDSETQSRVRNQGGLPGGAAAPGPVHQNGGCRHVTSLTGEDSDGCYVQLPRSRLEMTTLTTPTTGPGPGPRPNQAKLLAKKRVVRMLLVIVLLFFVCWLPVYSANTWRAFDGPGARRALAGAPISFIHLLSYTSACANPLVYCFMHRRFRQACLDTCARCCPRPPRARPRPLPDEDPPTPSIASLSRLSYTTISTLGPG
Put plainly: CCKB receptor radioligand binding assay in mouse cortical membranes ([125I]-CCK8S). As to conditions: [125I]-CCK8S 200 pM, 150 min at 21±3°; for Ki: read-out: CCKB pKi (converted). A digest of the protocol: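 This was competition binding with tracer [125I]-CCK8S (200 pM solution added), run for 150 min at 21±3° on male CD1 mouse cortex membranes in pH 7.2 HEPES buffer with bacitracin. Filtration then gamma counting gave bound radioactivity. L-365,260 set the non-specific level.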

The target in assay [2] is T2, gastrin (Rattus norvegicus, UniProt P30553).
T2 construct: The stomach was lowered into a jacketed organ bath containing 40 ml of buffered solution; from tissue; host or cells: isolated perfused whole stomach of immature rats (ca. 21 days old)
T2 sequence (P30553 1-452): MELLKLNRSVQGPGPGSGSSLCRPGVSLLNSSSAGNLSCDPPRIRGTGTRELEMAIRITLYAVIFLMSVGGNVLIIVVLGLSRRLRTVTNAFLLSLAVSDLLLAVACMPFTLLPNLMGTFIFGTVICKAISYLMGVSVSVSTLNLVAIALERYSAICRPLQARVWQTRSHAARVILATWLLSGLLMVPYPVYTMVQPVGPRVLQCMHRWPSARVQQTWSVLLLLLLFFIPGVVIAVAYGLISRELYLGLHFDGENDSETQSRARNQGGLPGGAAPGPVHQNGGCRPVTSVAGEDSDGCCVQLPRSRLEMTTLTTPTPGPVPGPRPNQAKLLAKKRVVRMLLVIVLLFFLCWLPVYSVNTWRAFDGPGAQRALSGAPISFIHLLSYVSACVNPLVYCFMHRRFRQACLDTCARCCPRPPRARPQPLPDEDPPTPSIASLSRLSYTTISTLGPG
As to the kind of experiment: gastrin antagonist activity in an immature rat stomach assay (pentagastrin-stimulated acid secretion). The note with it: cumulative pentagastrin dose-response curves after 60 min with drug; for Kb: read-out: Gastrin pKB (converted). A digest of the protocol: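 Isolated lumen-perfused immature rat stomach (33-50 g, ca. 21 days) in 37° organ bath with 3×10^-8 M 5-methylfurmethide; acid secretion read by pH electrode in perfusate. Compound added to serosal bath after 120 min stabilisation; cumulative pentagastrin dose-response curves begun 60 min later and analysed by the Black et al. method.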

The target of assay [3] is T3, CCKA (Cavia porcellus, UniProt Q63931).
T3 construct: The pancreatata were homogenised in 40 ml ice-cold HEPES buffer using a polytron; from tissue; host or cells: pancreas membranes of male Dunkin Hartley guinea-pigs
T3 sequence (Q63931 1-430): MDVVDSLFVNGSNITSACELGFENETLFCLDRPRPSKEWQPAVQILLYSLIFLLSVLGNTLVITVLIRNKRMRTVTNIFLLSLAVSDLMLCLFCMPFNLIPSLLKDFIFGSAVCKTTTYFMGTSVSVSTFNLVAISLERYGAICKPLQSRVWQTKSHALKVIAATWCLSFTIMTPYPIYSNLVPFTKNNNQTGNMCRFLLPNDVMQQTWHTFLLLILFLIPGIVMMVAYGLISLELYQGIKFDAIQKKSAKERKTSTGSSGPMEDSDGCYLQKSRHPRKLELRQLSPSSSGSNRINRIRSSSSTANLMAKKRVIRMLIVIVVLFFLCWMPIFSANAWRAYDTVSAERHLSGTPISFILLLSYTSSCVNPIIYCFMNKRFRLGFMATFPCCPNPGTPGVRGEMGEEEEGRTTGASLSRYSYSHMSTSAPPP
As to the kind of experiment: CCKA radioligand binding assay in guinea-pig pancreas membranes ([125I]-CCK8(S)). The note with it: PD134,308 present, 150 minutes at 21±3°; for Ki: read-out: CCKA pKi (converted). A digest of the protocol:
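Competition for [125I]-CCK8(S) (added as […] solution) ran for 150 min at 21±3° in HEPES pH 7.2. Membranes came from male guinea-pig pancreas at 1 mg/ml original wet weight, with 0.375 μM PD134,308 in the suspension. Filter-bound counts were gamma-counted; 100 nM L-364,718 (added solution) defined non-specific binding.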

`CC(=O)n1ccc2cc(C(=O)N[C@@H](Cc3ccccc3)C(=O)Nc3cc(C(=O)O)cc(C(=O)O)c3)c(C(=O)NCC34CC5CC(CC(C5)C3)C4)cc21` [Example 44, 5-(1S-(3,5-dicarboxyphenylaminocarbonyl)-2-phenylethylaminocarbonyl)-6-(1-adamantanemethylaminocarbonyl)-N-acetyl-indole]: in assay [1], the “CCKB pKi” value was 8.7. In assay [2], the “Gastrin pKB” value was 8.7. In addition, the “CCKA pKi” value in assay [3] was 5.6.
With `C[C@H](NC(=O)c1cc2cc[nH]c2cc1C(=O)NCC12CC3CC(CC(C3)C1)C2)C(=O)Nc1cc(C(=O)O)cc(C(=O)O)c1` [Example 47, 5-(1S-(3,5-dicarboxyphenylaminocarbonyl)-ethylaminocarbonyl)-6-(1-adamantanemethylaminocarbonyl)-indole], the Ki in assay [1] was 158 nM; in assay [3], 6310 nM. Besides, the Kb in assay [2] was 5.01 nM.
Taken in the same sequence, the figures for `C[C@H](NC(=O)c1cc2[nH]ccc2cc1C(=O)NCC12CC3CC(CC(C3)C1)C2)C(=O)Nc1cc(C(=O)O)cc(C(=O)O)c1` [Example 48, 6-(1S-(3,5-dicarboxyphenylaminocarbonyl)-ethylaminocarbonyl)-5-(1-adamantanemethylaminocarbonyl)-indole] were 631 nM, 3160 nM and 100 nM.
In the case of `CC(=O)Oc1cc(OC(C)=O)c2cc(C(=O)N[C@@H](Cc3ccccc3)C(=O)Nc3cc(C(=O)O)cc(C(=O)O)c3)c(C(=O)NCC34CC5CC(CC(C5)C3)C4)cc2c1` [Example 53, 3-(1S-(3,5-dicarboxyphenylaminocarbonyl)-2-phenylethylaminocarbonyl)-2-(1-adamantanemethylaminocarbonyl)-5,7-diacetoxy-naphthalene], in assay [1], the “CCKB pKi” value worked out at 8.1. In addition, the “Gastrin pKB” value in assay [2] came to 7.9. Further, in assay [3], the “CCKA pKi” value amounted to 6.1.
Taken in the same sequence, the figures for `CC(=O)Oc1cc(OC(C)=O)c2cc(C(=O)NCC34CC5CC(CC(C5)C3)C4)c(C(=O)N[C@@H](Cc3ccccc3)C(=O)Nc3cc(C(=O)O)cc(C(=O)O)c3)cc2c1` [Example 54, 2-(1S-(3,5-dicarboxyphenylaminocarbonyl)-2-phenylethylaminocarbonyl)-3-(1-adamantanemethylaminocarbonyl)-5,7-diacetoxy-naphthalene] were 8.1, 8.1 and 5.9.
For the compound `O=C(O)c1cc(NC(=O)[C@H](Cc2ccccc2)NC(=O)C2Cc3ccccc3CN2C(=O)NCC23CC4CC(CC(C4)C2)C3)cc(C(=O)O)c1` (stereo partly drawn) [Example 57, 3-(1S-(3,5-dicarboxyphenylaminocarbonyl)-2-phenylethylaminocarbonyl)-2-(1-adamantanemethylaminocarbonyl)-1,2,3,4-tetrahydroisoquinoline], the Ki is 20 nM in assay [1] and 2000 nM in assay [3]. Further, in assay [2], the Kb is 20 nM.
Regarding `O=C(O)c1cc(NC(=O)[C@H](Cc2ccc(O)cc2)NC(=O)c2cc3[nH]cnc3cc2C(=O)NCC23CC4CC(CC(C4)C2)C3)cc(C(=O)O)c1` [Example 60, 5-(1S-(3,5-dicarboxyphenylaminocarbonyl)-2-(4-hydroxyphenyl)ethylaminocarbonyl)-6-(1-adamantanemethyaminocarbonyl)-benzimidazole], the “CCKB pKi” value in assay [1] is 7.8. For the same compound, in assay [2], the Kb was 7.94 nM. Further, in assay [3], the Ki is 2510 nM.
Take `O=C(O)c1cc(NC(=O)[C@@H](Cc2ccccc2)NC(=O)c2cc3[nH]cnc3cc2C(=O)NCC23CC4CC(CC(C4)C2)C3)cc(C(=O)O)c1` [Example 61, 5-(1R-(3,5-dicarboxyphenylaminocarbonyl)-2-phenylethylaminocarbonyl)-6-(1-adamantanemethylaminocarbonyl)-benzimidazole]: the Ki was 3.98 nM in assay [1] and 6310 nM in assay [3]. Moreover, the Kb in assay [2] was 2 nM.
The matching figures for `O=C(O)c1cc(NC(=O)[C@H](Cc2ccccc2)NC(=O)c2cc3[nH]cnc3cc2C(=O)NCC2CCCCCC2)cc(C(=O)O)c1` [Example 62, 5-(1S-(3,5-dicarboxyphenylaminocarbonyl)-2-phenylethylaminocarbonyl)-6-(1-cycloheptanemethylaminocarbonyl)-benzimidazole]: 15.8 nM, 3980 nM and 6.31 nM.
As to `O=C(NCC12CC3CC(CC(C3)C1)C2)c1cc2nc[nH]c2cc1C(=O)N[C@@H](Cc1ccccc1)C(=O)NCc1ccc(F)cc1` [Example 67, 5-(1S-(4-fluorophenylmethylaminocarbonyl)-2-phenylethylaminocarbonyl)-6-(1-adamantanemethylaminocarbonyl)-benzimidazole], the Ki in assay [1] was 501 nM; in assay [3], 2000 nM. Further, the Kb in assay [2] is 158 nM.
Taken in the same sequence, the figures for `O=C(O)c1cc(NC(=O)[C@H](Cc2c[nH]cn2)NC(=O)c2cc3[nH]cnc3cc2C(=O)NCC23CC4CC(CC(C4)C2)C3)cc(C(=O)O)c1` [Example 69, 5-(1S-(3,5-dicarboxyphenylaminocarbonyl)-2-(2,4-imidazolyl)ethylaminocarbonyl)-6-(1-adamantanemethylaminocarbonyl)-benzimidazole] were 316 nM, 7940 nM and 79.4 nM.
`O=C(O)c1cc(NC(=O)[C@H](Cc2ccccc2F)NC(=O)c2cc3[nH]cnc3cc2C(=O)NCC2CCCCCC2)cc(C(=O)O)c1` [Example 70, 5-(1S-(3,5-dicarboxyphenylaminocarbonyl)-2-(2-fluorophenyl)ethylaminocarbonyl)-6-(cycloheptanemethylaminocarbonyl)-benzimidazole]: the figures for the Ki in assay [1] and in assay [3] were 7.94 nM and 7940 nM, respectively. Further, the Kb in assay [2] is 15.8 nM.
Regarding `C[C@H](NC(=O)c1cc2[nH]cnc2cc1C(=O)NCC12CC3CC(CC(C3)C1)C2)C(=O)Nc1cc(C(=O)O)cc(C(=O)O)c1` [Example 71, 5-(1S-(3,5-dicarboxyphenylaminocarbonyl)-ethylaminocarbonyl)-6-(1-adamantanemethylaminocarbonyl)-benzimidazole], the Ki was 398 nM in assay [1] and 5010 nM in assay [3]. Moreover, in assay [2], the Kb was 100 nM.
For the compound `C[C@H](NC(=O)c1cc2[nH]cnc2cc1C(=O)NCC1CCCCCC1)C(=O)Nc1cc(C(=O)O)cc(C(=O)O)c1` [Example 72, 5-(1S-(3,5-dicarboxyphenylaminocarbonyl)-ethylaminocarbonyl)-6-(cycloheptanemethylaminocarbonyl)-benzimidazole], the “CCKB pKi” value in assay [1] came out at 6.0. The “Gastrin pKB” value in assay [2] is reported as 6.3. The “CCKA pKi” value in assay [3] turned out to be 5.6.

(Values after patent publication US5795907A, “Gastin and CCK receptor ligands” (James Black Foundation Limited, priority 1994, dated 1998).)
